The values below come from ChEMBL document CHEMBL2440081 (Bioorg Med Chem, 2013).

SMILES strings stand for the structures.

The test addresses Carbonic anhydrase 13 (Homo sapiens, UniProt Q8N1Q1).

Carbonic anhydrase 13, sequence (Q8N1Q1 whole entry): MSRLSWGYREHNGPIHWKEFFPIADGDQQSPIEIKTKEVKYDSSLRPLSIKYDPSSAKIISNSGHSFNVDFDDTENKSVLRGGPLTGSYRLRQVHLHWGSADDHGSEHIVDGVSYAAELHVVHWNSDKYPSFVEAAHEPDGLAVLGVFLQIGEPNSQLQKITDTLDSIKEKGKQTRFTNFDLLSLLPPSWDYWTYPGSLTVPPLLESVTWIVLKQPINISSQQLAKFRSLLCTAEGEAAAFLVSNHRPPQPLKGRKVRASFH
Description: Inhibition of human carbonic anhydrase13 preincubated for 15 mins by stopped-flow CO2 hydration assay

As to `CCN[C@H]1CN(CCCOC)S(=O)(=O)c2sc(S(N)(=O)=O)cc21` [BRINZOLAMIDE], the Ki was 11 nM.
